US6043228A, “O^6 -substituted guanine derivatives, a process for their preparation and their use in treating tumor cells” (Cancer Research Campaign Technology Limited, priority 1993, dated 2000)
“And” between values parts separate entries of the source, which are not always exact repeats. Equal values may be shown once. “Also recorded” adds a separate entry of the source.

Experiments:
[1] = tested on: human melanoma xenografts; assay: Sensitization of human melanoma xenografts to temozolomide; assay type: in vivo, nude mice; settings: for sensitizing human melanoma xenografts to growth inhibitory effects of temozolomide, in words: inactivator i.p. 1 hour before temozolomide 100 mg/kg i.p., five consecutive days (FIGS. 21A, 22A)
Procedure: Xenograft tumour measurements were taken every 1-2 days by workers using digital calipers. Tumour volume was calculated using the formula (h×w×l)π/6. The experimental animals were also weighed every 1-2 days. Measurements continued until tumours in the control animals reached the maximum allowable volume (i.e. 1 cm×1 cm×1 cm).
(§1) Mice were treated with the inactivator as a suspension in corn oil by intraperitoneal injection (i.p.) or by oral gavage (p.o.) 60 mins prior to temozolomide (100 mg/kg in 20% DMSO in phosphate-buffered saline) which was always given by intraperitoneal injection: this schedule was repeated on days 1 to 5 inclusive. Controls received vehicle alone, inactivator alone or temozolomide alone.
The mice in the tests shown in FIGS. 19-24 were Swiss mouse derived athymic male mice ([…]) from ZENECA Pharmaceuticals, Mereside, Alderley Park, Macclesfield, Cheshire SK10 4T6, England.

[2] = molecular target: T1, ATase in human melanoma xenografts (Homo sapiens, UniProt P16455); assay: ATase activity in human melanoma (A375) xenografts grown in nude mice after inactivator; assay type: in vivo; settings: with temozolomide 50 mg/kg i.p., three consecutive days, 24 hours after final dose (FIG. 19)
T1 construct: A375M cells are human melanoma cells from which the xenografts described below were established; endogenous in cells; host or cells: A375M xenograft grown in nude mice
T1 sequence (P16455 1-207): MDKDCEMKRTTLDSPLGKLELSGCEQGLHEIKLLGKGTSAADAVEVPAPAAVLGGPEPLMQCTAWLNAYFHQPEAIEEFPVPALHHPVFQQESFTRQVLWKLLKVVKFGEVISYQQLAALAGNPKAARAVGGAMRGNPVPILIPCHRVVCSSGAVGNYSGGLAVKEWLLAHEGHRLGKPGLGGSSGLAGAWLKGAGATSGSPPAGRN

ATase = molecular target: T2, ATase (Mus musculus, UniProt P26187); assay: ATase activity in tissues of nude mice after inactivator; assay type: in vivo; settings: for inactivation of ATase in mouse tissues, in words: single dose (FIG. 18, Table 10)
T2 construct: Effect of B.4280 on ATase activity in several tissues of nude mice; from tissue; host or cells: liver, lung, kidney, spleen, brain, testis and bone marrow of nu/nu mice
T2 sequence (P26187 1-211): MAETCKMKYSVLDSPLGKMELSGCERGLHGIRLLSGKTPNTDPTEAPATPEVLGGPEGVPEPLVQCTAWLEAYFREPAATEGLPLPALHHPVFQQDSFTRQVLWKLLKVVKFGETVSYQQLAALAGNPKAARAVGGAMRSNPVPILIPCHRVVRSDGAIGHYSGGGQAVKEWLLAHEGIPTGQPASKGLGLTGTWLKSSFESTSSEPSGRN
Procedure: ATase substrate DNA was prepared by incubation of purified calf thymes DNA with N-[^3 H]-methyl-N-nitrosuourea (18.7 Ci/mmole, Amersham International). Cell or tissue extracts (see 4.4) were incubated with [^3 H]-methylated-DNA substrate (100 μl containing 6.7 μg of DNA and 100 fmol of O^6 -[^3 H]methylguanine) at 37° C. for 60 mins. Following acid hydrolysis of the DNA as precviously described^21the [^3 H]-methylated protein was recovered and quantitated by liquid scintillation counting. […]
The mice in the tests shown in FIGS. 17 and 18 were BALB-C derived athymic male mice (nu/nu athymic) from the in-house breeding colony at the Paterson Institute for Cancer Research as described above (Animal Services Unit-ASU Mice).
Animals were given a single dose of B.4280 (10 mg/kg i.p.) and sacrificed

recombinant human ATase = molecular target: T3, recombinant human ATase (Homo sapiens, UniProt P16455); assay: In vitro ATase inactivation assay (incubation with inactivators and ATase assay); assay type: biochemical; settings: for ATase inactivation in vitro, result in words: recombinant human ATase, standard conditions
T3 construct: made in house
T3 sequence (P16455 1-207): T1 sequence (P16455 1-207)
Procedure: The cDNA cloning and overexpression of the human ATase has been reported previously^23. Purification of the recombinant proteins was achieved either by affinity chromatography through a DNA-cellulose column as described by Wilkinson et al.,^25, 26 or by DEAE-cellulose ion-exchange chromatography. For the latter, the ATase protein was partially purified by ammonium sulphate precipitation (30-60%) and dialysed against 10 mM Tris-HCl pH 7.5, 1 mM DTT, 2 mM EDTA, 10% glycerol, before loading on a DEAE-cellulose column. The ATase was then eluted with a 0-0.1 M NaCl gradient.
Compounds to be tested were dissolved in DMSO to a final concentration of 10 mM and diluted just before use in buffer I containing 1 mg/ml bovine serum albumin (IBSA). Recombinant ATase was diluted in IBSA and titrated in order that the reaction be conducted under ATase, and not substrate, limiting conditions. […] Following acid hydrolysis of the DNA as previously described^21 the [^3 H]-methylated protein was recovered and quantitated by liquid scintillation counting. Samples were typically assayed in duplicate and experiments repeated several times. I50 is the concentration of inactivator required to produce a 50% reduction in ATase activity.

[3] = molecular target: T1, ATase in human melanoma xenografts; assay: ATase activity in human melanoma (A375) xenografts grown in nude mice after inactivator; assay type: in vivo; settings: for inactivation of ATase in human melanoma xenografts, in words: single i.p. dose 30 or 60 mg/kg (FIG. 17); for ATase mean activity (fm/mg): Tumour
Procedure: Cells (10^6) in 100 μl of PBS were injected subcutaneously into the right-hand flank of 8-10 week old nu/nu athymic mice. These cells were allowed to develop into a tumour for 3-4 weeks for passaging into experimental animals. Tumour blocks measuring 2 mm×2 mm×2 mm were implanted subcutaneously on the right hand flank. These animals were ready for use in inactivator experiments in 7-10 days.
ATase substrate DNA was prepared by incubation of purified calf thymes DNA with N-[^3 H]-methyl-N-nitrosuourea (18.7 Ci/mmole, Amersham International). Cell or tissue extracts (see 4.4) were incubated with [^3 H]-methylated-DNA substrate (100 μl containing 6.7 μg of DNA and 100 fmol of O^6 -[^3 H]methylguanine) at 37° C. for 60 mins. Following acid hydrolysis of the DNA as precviously described^21the [^3 H]-methylated protein was recovered and quantitated by liquid scintillation counting.
as §1

Raji cells = assay: Sensitization of Raji cells to temozolomide (XTT assay); assay type: cell-based, human
Procedure: Following a 2 hour incubation at 37° C., medium containing either increasing doses of BCNU, temozolomide or equivalent vehicle was added and the cells allowed to grow for 6 days. At this time XTT solution was added and the cells incubated for a further 4 hours at 37° C. The resulting red/orange formazan reaction product was quantified by measuring absorption at 450 nm on a microtitre platereader.

## Nc1nc(OCc2cccs2)c2nc[nH]c2n1 [B.4205, 0^6 -thenylguanine]
[1]
  sensitizing human melanoma xenografts to growth inhibitory effects of temozolomide, in words: effective in sensitizing
[2]
  ATase inactivation in tumour xenografts, in words: more effective in ATase inactivation in tumour xenografts than either agent alone and 10 mg/kg being ag ettentive as 60 mg/kg
ATase
  inactivation of ATase in mouse tissues, in words: able to inactivate ATase in most mouse tissues examined but there was less inactivation in brain than other tissues
Recombinant human ATase
  ATase inactivation in vitro, result in words: considerably better; also recorded: I50 values lower than that of BeG
[3]; 30 mg/kg (FIG. 8)
  inactivating ATase in human melanoma xenografts, in words: as effetive as BeG
[3]
  inactivation of ATase in human melanoma xenografts, in words: inactivated
Raji cells; 0.1 μM inactivator (FIG. 3)
  sensitising Raji cells to growth inhibitory effects of temozolomide, in words: more effective than BeG
Raji cells; 0.1-5.0 μM inactivator (FIGS. 3, 4)
  dose response of Raji sensitization to temozolomide, in words: lack of dose response

## Nc1nc(OCc2cc(Br)cs2)c2nc[nH]c2n1 [B.4280, O^6-(4-bromothenyl)guanine]
[1]; 30 mg/kg p.o. vs 20 mg/kg i.p. (FIG. 24A)
  oral versus i.p. administration in sensitizing xenografts to temozolomide, in words: almost as effective as i.p. administration
[1]
  sensitizing human melanoma xenografts to growth inhibitory effects of temozolomide, in words: effective in sensitizing; also recorded: about twice as effective as B.4205
[2]
  ATase inactivation in tumour xenografts, in words: more effective in ATase inactivation in tumour xenografts than either agent alone; also recorded: more effective than B.4205 at equivalent doses
ATase; Bone Marrow (pooled), 24 h after 10 mg/kg i.p.
  ATase mean activity (fm/mg): 42 fm/mg
ATase; Bone Marrow (pooled), 48 h after 10 mg/kg i.p.
  ATase mean activity (fm/mg): 61 fm/mg
ATase; Brain, 24 h after 10 mg/kg i.p.
  ATase mean activity (fm/mg): 13.7 ± 2.05 fm/mg
ATase; Brain, 48 h after 10 mg/kg i.p.
  ATase mean activity (fm/mg): 16.3 ± 1.25 fm/mg
ATase; Kidney, 24 h after 10 mg/kg i.p.
  ATase mean activity (fm/mg): 24.3 ± 4.03 fm/mg
ATase; Kidney, 48 h after 10 mg/kg i.p.
  ATase mean activity (fm/mg): 28.7 ± 4.11 fm/mg
ATase; Liver, 24 h after 10 mg/kg i.p.
  ATase mean activity (fm/mg): 89.7 ± 10.14 fm/mg
ATase; Liver, 48 h after 10 mg/kg i.p.
  ATase mean activity (fm/mg): 100.7 ± 8.73 fm/mg
ATase; Lung, 24 h after 10 mg/kg i.p.
  ATase mean activity (fm/mg): 15.3 ± 2.05 fm/mg
ATase; Lung, 48 h after 10 mg/kg i.p.
  ATase mean activity (fm/mg): 24 ± 2.83 fm/mg
ATase; Spleen, 24 h after 10 mg/kg i.p.
  ATase mean activity (fm/mg): 41 ± 5.35 fm/mg
ATase; Spleen, 48 h after 10 mg/kg i.p.
  ATase mean activity (fm/mg): 68.3 ± 9.53 fm/mg
ATase; Testis, 24 h after 10 mg/kg i.p.
  ATase mean activity (fm/mg): 45 ± 7.48 fm/mg
ATase; Testis, 48 h after 10 mg/kg i.p.
  ATase mean activity (fm/mg): 44 ± 1.41 fm/mg
ATase
  inactivation of ATase in mouse tissues, in words: able to inactivate ATase in most tissues
Recombinant human ATase
  IC50: 3.4 nM
  ATase inactivation in vitro, result in words: more efficient in inactivating ATase in vitro than its 5-bromo analogue B.4269; also recorded: more efficient than the unsubstituted thenyl derivative B.4205
[3]; 10 mg/kg i.p. (Table 10)
  recovery of tumour ATase activity, in words: very low at 24 hours but had recovered completely by 48 hours
[3]; 24 h after 10 mg/kg i.p.
  ATase mean activity (fm/mg): 36 ± 7.79 fm/mg
[3]; 48 h after 10 mg/kg i.p.
  ATase mean activity (fm/mg): 140 ± 43.87 fm/mg
[3]
  inactivation of ATase in human melanoma xenografts, in words: inactivated; also recorded: the most effective in vivo inactivator at the doses examined
Raji cells; 0.5 μM inactivator, 2 hours before temozolomide (FIG. 16)
  sensitization of Raji cells to temozolomide, in words: much more effective than either B.4205 or BeG
